Key:
[1] = test system: Non-obese diabetic (NOD) ShiLt mice; experiment: NOD mouse model of T1D; assay type: in vivo
Description: NOD model. Non-obese diabetic (NOD) ShiLt mice were used in this study. NOD mice have numerous genetic mutations that enable the spontaneous onset of hyperglycemia and pancreatic pathologies associated with T1D. Mice entered into the experiment at 9 weeks of age and were monitored for a […]. Mice were treated daily with vehicle, 10 mg/kg BT-63, or 20 mg/kg BT-63 by oral gavage. Once weekly blood samples were collected from the tail vein to be tested for glucose concentration by glucometer. Mice were euthanized after 12 weeks for collection of blood and organs for immunological testing.
Treatment administration. BT-63 was prepared within a 0.5% methylcellulose (12-15 cP) solution. Dosage used was 10 or 20 mg/kg delivered once daily. Mice were weighed on a weekly basis to update dosage formulation. Dosage was calculated based off mean body weights for each gender. Oral dosage was delivered by orogastric gavage of dosage in 0.2 mL volume.
Immunological analysis. Blood was collected by cardiac puncture into heparinized tube. Plasma was separated following centrifugation and assayed by Luminex for cytokine and hormones related to the development of T1D. Spleens were excised, crushed and filtered to provide a cellular suspension. Red blood cells were lysed. Cells were labeled with mixtures of extracellular (CD45, CD3, CD4, CD8, CD19, NK1.1, CD25, F4/80, CD11b, Gr1, CX3CR1, CD64) and intracellular (Tbet, BCL6, FOXP3, IFNγ, IL21, IL10) antibodies in a sequential live staining in 96-well plates in preparation for flow cytometry. Data was captured on a BD FACS Celesta and analyzed using FacsDiva.

NZB/W F1 mice = experiment: NZB/W F1 genetic mouse model of SLE (BT-63); assay type: in vivo
Description: NZB/W F 1 model. Twenty-four-week-old, female NZB/W F1 mice were randomized into vehicle or BT-63-treated arms based on baseline urine protein levels (n=10). BT-63 was orally administered daily at 20 mg/kg for 12 weeks. Mice were weighed on a weekly basis to update dosage formulation. Dosage was calculated based off mean body weights.
Immunological analysis. Blood was collected by cardiac puncture into EDTA tube. Plasma was separated following centrifugation and assayed by ELISA for anti-dsDNA antibodies and IFN-α. Urine was collected to assay for protein content to test for kidney function. Spleens were excised, crushed and filtered to provide a cellular suspension. Red blood cells were lysed. Cells were labeled with mixtures of extracellular (CD45, CD3, CD4, CD8, CD19, CD138, CD25, MHCII, CD11b, CD11c, CXCR3, IgD, IgM) and intracellular (BCL6, FOXP3, IL21, IL6, IL10) antibodies in a sequential live staining in 96-well plates in preparation for flow cytometry. Data was captured on a BD FACS Celesta and analyzed using FacsDiva.

LANCL2 protein = target: T1, LANCL2 protein (Homo sapiens, UniProt Q9NS86); experiment: Surface plasmon resonance binding to LANCL2 (Biacore T200); details: SPR, immobilized LANCL2, analyte 0-40 μM
T1 construct: made in house; host or cells: Pichia pastoris
T1 sequence (Q9NS86 1-450): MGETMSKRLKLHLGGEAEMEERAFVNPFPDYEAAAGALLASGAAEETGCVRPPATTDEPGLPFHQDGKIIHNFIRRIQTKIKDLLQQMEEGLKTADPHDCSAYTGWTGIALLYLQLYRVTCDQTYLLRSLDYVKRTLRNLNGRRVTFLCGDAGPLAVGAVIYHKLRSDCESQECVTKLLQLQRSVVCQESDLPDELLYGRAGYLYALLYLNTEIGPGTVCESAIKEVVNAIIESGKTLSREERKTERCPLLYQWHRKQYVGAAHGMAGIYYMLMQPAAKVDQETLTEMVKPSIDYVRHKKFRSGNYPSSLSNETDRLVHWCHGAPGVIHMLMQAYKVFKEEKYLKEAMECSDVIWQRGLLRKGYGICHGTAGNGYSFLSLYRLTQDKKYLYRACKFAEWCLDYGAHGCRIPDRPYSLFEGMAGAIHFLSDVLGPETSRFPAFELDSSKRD
Description: LANCL2 production and purification. LANCL2 was cloned into E. coli, amplified and transfected in Pichia pastoris. P. pastoris was plated onto adenine selective media. Stable transfected colonies were selected and grown within YPD broth at 30° C. for 24 hours, 240 RPM shaking. Starter culture was used to inoculate base media (1% yeast extract, 2% peptone, 1% sorbitol, 2% yeast nitrogen base) containing biotin and buffered with potassium phosphate. Inoculated base media was incubated for 48 hours at 30° C., 240 RPM. P. pastoris was then pelleted by centrifugation and resuspended in expression media (1% sorbitol, 2% yeast nitrogen base) containing biotin and buffered with potassium phosphate. Culture was induced daily for protein production through addition of methanol and incubated for a total of 4 days at 28° C., 240 RPM. After incubation, cells were pelleted by centrifugation and lysed by sonication. Recombinant LANCL2 protein was purified by fast protein liquid chromatography (AktaPrime) using immobilized metal affinity chromatography. Fractions of protein were eluted in 1 mL aliquots and evaluated for LANCL2 content.
Surface plasmon resonance. A Biacore T200 was used to evaluate binding to the LANCL2 protein. Protein was immobilized onto the CMS sensor chip. […] Based on the immobilized response values, theoretical Rmax values were calculated. […]

[2] = 21 weeks of age, oral 10 or 20 mg/kg
[3] = spleen, 21 weeks of age, oral 10 or 20 mg/kg
[4] = 36 weeks of age (12 weeks of treatment), 20 mg/kg
[5] = spleen, 12 weeks oral 20 mg/kg, relative to vehicle

O=C(CN1CCN(C(=O)c2cccc(-c3nc4ccccc4[nH]3)n2)CC1)c1ccccc1 [BT-63, 2-(4-(6-(1H-benzo[d]imidazol-2-yl)picolinoyl)piperazin-1-yl)-1-phenylethanone]
reduction of percentage of hyperglycemic mice ([1]; 20 mg/kg group compared to vehicle): 50%
HbA1c ([1]; 21 weeks of age, 10 mg/kg): reduced
HbA1c ([1]; 21 weeks of age, 20 mg/kg): reduced
plasma MCP-1 [1, 2]: reduced
plasma TNF [1, 2]: reduced
plasma levels of C-peptide [1, 2]: increased
plasma levels of insulin [1, 2]: increased
blood glucose levels ([1]; NOD mice, oral daily, from 19 weeks of age through end): significantly lower
CD4+IL10+ to CD4+IFNγ+ ratio [1, 3]: increased
PD1+ CD4+ T cells [1, 3]: increasing
T follicular helper (Tfh) cells (BCL6+IL21+) [1, 3]: decreasing
body weight change from baseline (weight loss) (NZB/W F1 mice; 12 weeks oral 20 mg/kg): protected mice from weight loss
proteinuria score (NZB/W F1 mice; 12 weeks oral 20 mg/kg, from baseline): prevented worsening
plasma IFN-α levels (NZB/W F1 mice; [4]): reduced
plasma anti-dsDNA levels (NZB/W F1 mice; [4]): reduced
CXCR3+ plasma cells (NZB/W F1 mice; spleen, 12 weeks oral 20 mg/kg): moderate reduction
follicular B cells (NZB/W F1 mice; spleen, 12 weeks oral 20 mg/kg): moderate reduction
plasma cells (NZB/W F1 mice; spleen, 12 weeks oral 20 mg/kg): moderate reduction
CD25+ FOXP3+ regulatory CD4+ T cells (NZB/W F1 mice; [5]): greater reductions
IL6+ myeloid cells (NZB/W F1 mice; [5]): greater reductions
IL21+ BCL6+ follicular helper T cells (NZB/W F1 mice; [5]): greater reductions
Kd (LANCL2 protein): 2740 nM

Source: patent publication US12145920B2, “Lanthionine c-like protein 2 ligands, cells prepared therewith, and therapies using same” (NImmune Biopharma, Inc., priority 2019, dated 2024)
